Assay results reported in patent publication US11958842B2, “Substituted phenazines and methods of treating cancer and bacterial diseases” (Adjutec Pharma AS, priority 2016, dated 2024).
Like-named read-outs stand apart in the source and are kept apart here. Marks after values point to notes of the source that are not given here.

Tests used:
[1] = Parallel artificial membrane permeability assay (PAMPA); details: for Permeability: PAMPA class by ranges of Bennion et al.; for LogPeff: PAMPA
Method: The Corning Gentest™ pre-Coated parallel artificial membrane permeability assay PAMPA Plate System was from Cording Discovery Labware (Bedford, USA). The compounds were tested in room temperature at 50 μM using PBS as buffer. A total of 300 μl of the compound solution was added to each well of the donor plate, and 200 μl of PBS was added to the receiver filter plate. After incubation for five hours, 50 μl of the donor or acceptor well were injected into a reversed phase HPLC column (Kromasil 100-5 C18 150-4.6 mm, Akzo Nobel, Sweden) connected to a Merck-Hitachi LaChrome HPLC-system (VWR, WestChester, USA) with a L-7455 diode array detector. Mobile phase A was 0.05% aqueous TFA, and mobile phase B was acetonitrile. The flow rate was 1.6 ml/min and compounds eluted between 1 and 4.5 minutes was eluted during a 6.5 min gradient from 90:10% mobile phase A:B to 0:100% mobile phase A:B. The ratio of the compound concentrations in the donor and acceptor compartment was calculated after integration of the peaks at 285 nm. Peff was calculated as described in [Bennion B J, Be N A, McNerney M W, Lao V, Carlson E M, Valdez C A, et al. Predicting a Drug's Membrane Permeability: A Computational Model Validated With in Vitro Permeability Assay Data. The journal of physical chemistry B. 2017; 121(20):5228-37.]. Membrane permeability were classified by the range defined by Bennion et al., allowing for us to divide the compounds into four groups, compounds with high permeability (LogPeff>−5.33), intermediate permeability (LogPeff>−5.66 and <−5.33), low permeability (LogPeff>−6.14 and <−5.66) impermeable (LogPeff<−6.14).

[2] = test system: human acute myeloid leukemia cell line MOLM-13; experiment: Cytotoxicity, WST-1 and nuclear morphology (Example 73); type: cell-based
Method: (§1) All cell culturing media and serum were from Sigma-Aldrich (St. Louis, Mo., USA). Product Nos. are given in parentheses. The human acute myeloid leukemia cell line MOLM-13 was cultured in RPMI medium (R5886) enriched with […] (F7524) and 0.2 mM L-glutamine (G7513). The normal rat kidney epithelial (NRK) and the rat cardiomyoblast (H9c2) cells were cultured in DMEM medium (D6429) enriched with 10% fetal bovine serum (F7524). All cell lines were additionally supplemented with 100 IU/mL penicillin and […] (P0781). The cells were cultured in a humidified atmosphere either under 2% or 20% O2 at 37° C.
(§2) All analogues were dissolved in DMSO (D5879, Sigma-Aldrich) at concentrations between 2.5 and 20 mM before testing. For cytotoxic testing, the MOLM-13 cells were seeded as 20,000 cells/well, while NRK and H9c2 cells were seeded as 5,000 cells/well in 96-well Microplates (#167008, Thermo Scientific™ Nunc™ MicroWell™) with 100 μL medium/well. The cells were exposed to various concentrations of iodinin or its analogues for 24 hrs before the cell proliferation reagent WST-1 was used to assess the viability, in accordance with the manufacturer's instructions (11644807001, Roche Diagnostics, Sigma-Aldrich). The cells were next fixed in 2% buffered formaldehyde (pH 7.4) with the DNA-specific dye Hoechst 33342 (Polysciences Inc.) and assessed for cell death by UV-microscopy based on nuclear morphology. The highest concentration of analogue corresponded to 1% of DMSO, which alone gave less than 7% cell death as judged by nuclear morphology.
(§3) EC50 values were determined by analyses of WST-1 signal results as well as microscopic evaluation of cell death by four-parameter regression analyses using the SigmaPlot software (Systat Software inc. San Jose, Calif.):
(§4) [formula] where Y is the response (WST-1 signal or percent apoptosis), min and max are minimum and maximum response, X is concentration of analogue, EC50 equals the point of inflection, i.e. the point that gives half of maximum response, and h is the Hill's slope of the curve. The two methods gave consistent response curves for each analogue. In the case of Tirapazamine, where its colour interfered with the WST-1 signal, only microscopic evaluation of Hoechst stained cells was used in order to calculate its EC50 values.

Molm13 cells = experiment: Anti-AML activity, WST-1 viability (Example 72); type: cell-based; details: Homo sapiens
Method: Dry powder of analogs were dissolved in DMSO. IPC-18 rat AML cells (Lacaze, N. et al. Leuk. Res. 1983, 7, 145.) were cultured in DMEM medium (Sigma-Aldrich, St. Louis, Mo., USA) supplemented with 10% horse serum (Invitrogen, Carlsbad, Calif., USA), and antibiotics (50 U/mL of penicillin and 0.05 mg/mL streptomycin). Molm13 (Matsuo, Y. et al. Leukemia 1997, 11, 1469.) cells were cultured in RPMI supplemented with antibiotics (50 U/mL of penicillin and 0.05 mg/mL streptomycin) and 10% fetal bovine serum (FBS, Invitrogen, Carlsbad, Calif.) and kept in exponential growth before the experiments. Dilution series of iodinin analogs were added to medium and cell suspension added to reach a final cell concentration of 150 000 cells/ml in 0.1 mL in a 96 well tissue culture plate. […] The cells were incubated with the iodinin analogs for 22 h before WST-1 was added according to the manufacturers protocol, and the cells incubated further in 2 h. Mitochondrial conversion of WST-1 to its colored metabolite was measured by a plate reader at 450 nm, with 620 nm as the reference wavelength. The cells were next fixed by adding 4% buffered formaldehyde (PBS, pH 7.4, supplemented with 0.01 mg/mL Hoechst 33342 for nuclear visualization) to the cell suspension at 1:1 (v/v) ratio (final concentration of formaldehyde:[…]). The cells' nuclear and surface morphology were examined microscopically and results compared with the WST-1 viability assay. The results given in Table I are based on WST-1 data.

[3] = test system: normal rat kidney epithelial (NRK) cells; experiment: Cytotoxicity, WST-1 and nuclear morphology (Example 73); type: cell-based
Method: as §1, §2, §3, §4

[4] = test system: rat cardiomyoblast (H9c2) cells; experiment: as above; type: cell-based; details: H9c2, 19% O2, 24 hours of incubation, read-out: EC50 (μM) H9c2 19% O2
Method: as §1, §2, §3, §4

hepG2 = experiment: Cytotoxicity (Example 73, Table 2); type: cell-based; details: Homo sapiens, HepG2, 24 h, read-out: EC50 (μM) hepG2
[5] = 50 μM in PBS, room temperature, five hours
[6] = Homo sapiens, MOLM-13, 2% O2, 24 hours of incubation, read-out: EC50 (μM) MOLM-13 2% O2
[7] = Homo sapiens, MOLM-13, 19% O2, 24 hours of incubation, read-out: EC50 (μM) MOLM-13 19% O2
[8] = Molm 13 cells, 2% O2, 24 h of incubation, WST-1, read-out: Molm 13 IC50 2% O2
[9] = Molm 13 cells, 20% O2, 24 h of incubation, WST-1, read-out: Molm 13 IC50 20% O2
[10] = Rattus norvegicus, 2% O2, 24 hours of incubation, read-out: EC50 (μM) NRK 2% O2
[11] = Rattus norvegicus, 19% O2, 24 hours of incubation, read-out: EC50 (μM) NRK 19% O2
[12] = MOLM-13, 2% O2, 24 hours of incubation, read-out: EC50 (μM) MOLM-13 2% O2
[13] = MOLM-13, 19% O2, 24 hours of incubation, read-out: EC50 (μM) MOLM-13 19% O2
[14] = Rattus norvegicus, 24 h, read-out: EC50 (μM) NRK 2% O2, NRK, 2% O2, 24 hours of incubation
[15] = Rattus norvegicus, 24 h, read-out: EC50 (μM) NRK 19% O2, NRK, 19% O2, 24 hours of incubation

Structure (SMILES) | LogPeff [1, 5] | EC50 [2, 6] | EC50 [2, 7] | IC50 (Molm13 cells; [9]) | EC50 ([4]; Rattus norvegicus) | EC50 [2, 12] | EC50 [2, 13] | EC50 [3, 14] | EC50 [4] | further results
Oc1cccc2nc3c(O)cccc3nc12 [Example 1b, 1,6-dihydroxyphenazine] | −5.42 | 110 to 140 µM | 100 to 120 µM |  |  |  |  |  |  | Permeability [1]: Intermediate/high
CCOC(=O)COc1cccc2c1[n+]([O-])c1cccc(O)c1[n+]2[O-] [Example 5c, 1-(2-(ethoxy)-2-oxoethoxy)-6-hydroxyphenazine 5,10-dioxide] | −4.70 | 0.49 ± 0.12 µM | 0.57 ± 0.06 µM | 0.85 µM | 15 ± 0.9 µM |  |  |  |  | IC50 (Molm13 cells; [8]): 0.65 µM; EC50 [3, 10]: 18 ± 1.5 µM; EC50 [3, 11]: 11 ± 1.6 µM
O=C(O)COc1cccc2c1[n+]([O-])c1cccc(O)c1[n+]2[O-] [Example 7, 1-(carboxymethoxy)-6-hydroxyphenazine 5,10-dioxide] | −7.53 | 61 ± 4 µM | 54 ± 7 µM |  |  |  |  |  |  | 
CN1CCN(C(=O)Oc2cccc3c2[n+]([O-])c2cccc(O)c2[n+]3[O-])CC1 [Example 8a, 1-hydroxy-6-((4-methylpiperazine-1-carbonyl)oxy)phenazine 5,10-dioxide] |  |  |  |  |  | 1.4 ± 0.06 µM | 1.5 ± 0.16 µM | 59 ± 1.1 µM | 100 ± 13 µM | EC50 [3, 15]: 53 ± 2 µM; EC50 (hepG2): 30 µM
Cc1cc2c(cc1C)[n+]([O-])c1c(OC(=O)N3CCN(C)CC3)cccc1[n+]2[O-] [Example 8d, 7,8-dimethyl-1-((4-methylpiperazine-1-carbonyl)oxy)phenazine 5,10-dioxide] |  |  |  |  |  | 0.54 ± 0.06 µM | 0.63 ± 0.05 µM | 13 ± 0.7 µM | 9.4 ± 0.55 µM | EC50 [3, 15]: 11 ± 1.5 µM; EC50 (hepG2): 105 µM
CN(C)C(=O)Oc1cccc2c1[n+]([O-])c1ccccc1[n+]2[O-] [Example 8k, 1-((dimethylcarbamoyl)oxy)phenazine 5,10-dioxide] |  |  |  |  |  | 2.1 ± 0.16 µM | 1.3 ± 0.15 µM | 25 ± 0.6 µM | 16 ± 2.6 µM | IC50 (Molm13 cells; MOLM-13, 24 h, read-out: Molm 13 IC50 20% O2): 0.32 µM; EC50 [3, 15]: 19 ± 1.3 µM
CCCCC(=O)Oc1cccc2c1[n+]([O-])c1cccc(OC(=O)CCCC)c1[n+]2[O-] [Example 16b, 1,6-bis(pentanoyloxy)phenazine 5,10-dioxide] | −8.66 | 22 ± 2.8 µM | 36 ± 0.1 µM | ~40 µM | > 200 µM |  |  |  |  | 
CCOC(=O)COc1cccc2c1[n+]([O-])c1cccc(OCC(=O)OCC)c1[n+]2[O-] [Example 16c, 1,6-bis(2-ethoxy-2-oxoethoxy)phenazine 5,10-dioxide] |  | 0.79 ± 0.06 µM | 2 ± 0.47 µM | 4.11 µM | > 20 µM |  |  |  |  | IC50 (Molm13 cells; [8]): 3.98 µM; EC50 [3, 10]: > 20 µM; EC50 [3, 11]: > 20 µM
CC(C)(C)C(=O)Oc1cccc2c1[n+]([O-])c1cccc(OC(=O)C(C)(C)C)c1[n+]2[O-] [Example 16d, 1,6-bis(pivaloyloxy)phenazine 5,10-dioxide] | −5.86* | 8.9 ± 1.71 µM | 11 ± 0.7 µM | 4.05 µM | > 50 µM |  |  |  |  | IC50 (Molm13 cells; [8]): 5.59 µM
CCOC(=O)Oc1cccc2c1[n+]([O-])c1cccc(OC(=O)OCC)c1[n+]2[O-] [Example 16e, 1,6-bis((ethoxycarbonyl)oxy)phenazine 5,10-dioxide] |  | 4 ± 0.33 µM | 6.1 ± 0.05 µM | 2.23 µM | > 25 µM |  |  |  |  | IC50 (Molm13 cells; [8]): 3.5 µM; EC50 [3, 10]: > 25 µM; EC50 [3, 11]: > 25 µM
CCN(CC)C(=O)COc1cccc2c1[n+]([O-])c1cc(C)c(C)cc1[n+]2[O-] [Example 50, 1-(2-(diethylamino)-2-oxoethoxy)-7,8-dimethylphenazine 5,10-dioxide] | −5.42 | 3.4 ± 0.78 µM | 1.8 ± 0.24 µM |  | 41 ± 5.7 µM |  |  |  |  | Permeability [1]: Intermediate/high; EC50 [3, 10]: 52 ± 1.2 µM; EC50 [3, 11]: 21 ± 0.3 µM
Cc1cc2c(cc1C)[n+]([O-])c1c(OC(=O)N3CCCC3)cccc1[n+]2[O-] [Example 52, 7,8-dimethyl-1-((pyrrolidine-1-carbonyl)oxy)phenazine 5,10-dioxide] | −5.32 |  |  |  |  | 0.78 ± 0.11 µM | 1.5 ± 0.02 µM | 8.9 µM | 8.7 ± 1.2 µM | EC50 [3, 15]: 6.6 ± 0.04 µM
[O-][n+]1c2cc3ccccc3cc2[n+]([O-])c2c(O)cccc21 [Example 70, 1-hydroxybenzo[b]phenazine 5,12-dioxide] | −8.04 |  |  |  |  |  |  |  |  | 
CN1CCN(C(=O)Oc2cccc3c2[n+]([O-])c2cc4ccccc4cc2[n+]3[O-])CC1 [Example 71, 1-((4-methylpiperazine-1-carbonyl)oxy)benzo[b]phenazine 5,12-dioxide] | −5.43 |  |  |  |  | 1.8 ± 0.1 µM | 2.8 ± 0.18 µM | 7.5 ± 0.38 µM | 2.3 ± 0.05 µM | Permeability [1]: Intermediate/high; EC50 ([3]; read-out: EC50 (μM) NRK 19% O2, 19% O2, 24 hours of incubation): 2 ± 0.06 µM
Nc1n[n+]([O-])c2ccccc2[n+]1[O-] [Tirapazamine, reference compound] |  |  |  |  |  |  |  |  |  | LogPeff ([1]; 5 h, 50 μM): −5.79
